The target in this assay is recombinant IL4I1 (Homo sapiens (Human), UniProt Q96RQ9). The assay can be described thus: IL4I1 Enzymatic Assay (Amplex Red/HRP coupled fluorescence detection of H2O2). The class given is biochemical. Particulars: 240 min; recombinant IL4I1, four-hour pre-incubation with compound. The gist of the method: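 Recombinant human IL4I1 (1 nM final) pre-incubated 4 h with compound at ambient temperature in 50 mM Hepes pH 7.0, 0.005% Tween20. Started with 1 mM each Phe/Tyr/Trp plus Amplex Red/HRP; H2O2-derived resorufin fluorescence read after 120 min; EC50 from ten-point 1:3 titration, four-parameter fit.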

Structures are written as SMILES.

recombinant IL4I1, sequence (Q96RQ9 22-567): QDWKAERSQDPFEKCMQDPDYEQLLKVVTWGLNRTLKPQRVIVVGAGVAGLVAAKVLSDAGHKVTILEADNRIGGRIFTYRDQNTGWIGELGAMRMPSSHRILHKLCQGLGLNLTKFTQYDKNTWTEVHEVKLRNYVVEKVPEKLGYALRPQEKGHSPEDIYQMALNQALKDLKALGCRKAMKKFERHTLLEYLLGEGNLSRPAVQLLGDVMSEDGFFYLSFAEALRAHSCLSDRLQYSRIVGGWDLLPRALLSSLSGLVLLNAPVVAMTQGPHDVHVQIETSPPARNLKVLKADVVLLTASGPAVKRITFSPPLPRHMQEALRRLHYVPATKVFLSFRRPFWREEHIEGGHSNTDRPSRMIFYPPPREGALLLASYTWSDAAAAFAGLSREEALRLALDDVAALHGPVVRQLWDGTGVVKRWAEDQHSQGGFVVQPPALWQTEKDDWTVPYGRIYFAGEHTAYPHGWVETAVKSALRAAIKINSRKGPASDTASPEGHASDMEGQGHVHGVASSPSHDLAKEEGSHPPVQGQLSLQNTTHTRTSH

Turning to `O=c1c(=O)n(C2(CF)CC2)ccn1Cc1ccc(-n2ccnn2)cn1` [Example 261, 1-((5-(1H-1,2,3-triazol-1-yl)pyridin-2-yl)methyl)-4-(1-(fluoromethyl)cyclopropyl)-1,4-dihydropyrazine-2,3-dione], the EC50 stood at 178 nM.

For `O=c1c(=O)n(C23CC(F)(C2)C3)ccn1Cc1ccc(-n2ccnn2)cn1` [Example 262, 1-((5-(1H-1,2,3-triazol-1-yl)pyridin-2-yl)methyl)-4-(3-fluorobicyclo[1.1.1]pentan-1-yl)-1,4-dihydropyrazine-2,3-dione], the concentration for a half-maximal effect (EC50) was 868 nM.

Consider `O=C1C(=O)N(C23CC(F)(C2)C3)CCN1Cc1ccc(-n2ccnn2)cn1` [Example 263, 1-((5-(1H-1,2,3-triazol-1-yl)pyridin-2-yl)methyl)-4-(3-fluorobicyclo[1.1.1]pentan-1-yl)piperazine-2,3-dione], for which the 50% effective concentration (EC50) came out at 995 nM.

On to `O=c1c(=O)n(C2(CF)CC2)ccn1Cc1ccc(-n2nccn2)nc1` [Example 264, 1-((6-(2H-1,2,3-triazol-2-yl)pyridin-3-yl)methyl)-4-(1-(fluoromethyl)cyclopropyl)-1,4-dihydropyrazine-2,3-dione], for which the EC50 came to 73 nM.

For `O=C1C(=O)N(C23CC(F)(C2)C3)CCN1Cc1ccc(-n2nccn2)nc1` [Example 265, 1-((6-(2H-1,2,3-triazol-2-yl)pyridin-3-yl)methyl)-4-(3-fluorobicyclo[1.1.1]pentan-1-yl)piperazine-2,3-dione], the EC50 is 114 nM.

In the case of `O=C1C(=O)N([C@H]2C[C@@H](c3ccccc3)C2)CCN1Cc1ccc(-c2ccccc2)nc1` [Example 266A, cis-1-(3-phenylcyclobutyl)-4-((6-phenylpyridin-3-yl)methyl)piperazine-2,3-dione], the EC50 is 4 nM.

With `O=C1C(=O)N([C@H]2C[C@H](c3ccccc3)C2)CCN1Cc1ccc(-c2ccccc2)nc1` [Example 266B, trans-1-(3-phenylcyclobutyl)-4-((6-phenylpyridin-3-yl)methyl)piperazine-2,3-dione], the half-maximal effective concentration (EC50) came out at 4 nM.

In the case of `O=C1C(=O)N(C2CCCC2)CCN1Cc1ccc(-c2ccccc2)[n+]([O-])c1` [Example 267, 5-((4-cyclopentyl-2,3-dioxopiperazin-1-yl)methyl)-2-phenylpyridine 1-oxide], the EC50 is 57 nM.

On to `O=C1C(=O)N(C2CCCC2)CCN1CCc1cc2ccc(Cl)cc2nn1` [Example 268, 1-(2-(7-chlorocinnolin-3-yl)ethyl)-4-cyclopentylpiperazine-2,3-dione], for which the EC50 turned out to be 15 nM.

`O=C1C(=O)N(C2CCCC2)CCN1CCc1cc2ccccc2nn1` [Example 269, 1-(2-(cinnolin-3-yl)ethyl)-4-cyclopentylpiperazine-2,3-dione]: the EC50 turned out to be 49 nM.

For `O=C1C(=O)N(C2CCCC2)CCN1Cc1cnc(-c2ccccc2)nc1` [Example 270, 1-cyclopentyl-4-((2-phenylpyrimidin-5-yl)methyl)piperazine-2,3-dione], the EC50 amounted to 24 nM.

`O=C1C(=O)N(C2CCCC2)CCN1Cc1cnc(-c2ccccc2)cn1` [Example 271, 1-cyclopentyl-4-((5-phenylpyrazin-2-yl)methyl)piperazine-2,3-dione]: the EC50 was 14 nM.

For the compound `O=C1C(=O)N(C2CCCC2)CCN1Cc1ccc2cc[nH]c(=O)c2c1` [Example 272, 1-cyclopentyl-4-((1-oxo-1,2-dihydroisoquinolin-7-yl)methyl)piperazine-2,3-dione], the EC50 is 35 nM.

As for `O=C1C(=O)N(C2CCCC2)CCN1Cc1cnn(-c2ccccc2)c1` [Example 273, 1-cyclopentyl-4-((1-phenyl-1H-pyrazol-4-yl)methyl)piperazine-2,3-dione], the EC50 came to 19 nM.

Consider `O=C1C(=O)N(C2CCCC2)CCN1Cc1cc(-c2ccccc2)n[nH]1` [Example 274, 1-cyclopentyl-4-((3-phenyl-1H-pyrazol-5-yl)methyl)piperazine-2,3-dione], for which the EC50 amounted to 34 nM.

With `O=C1NCCc2ccc(CN3CCN(C4CCCC4)C(=O)C3=O)cc21` [Example 275, 1-cyclopentyl-4-((1-oxo-1,2,3,4-tetrahydroisoquinolin-7-yl)methyl)piperazine-2,3-dione], the EC50 turned out to be 20 nM.

Turning to `O=C1C(=O)N(C23CC(C2)C3)CCN1Cc1ncc(-c2ccccc2)cn1` [Example 276, 1-(bicyclo[1.1.1]pentan-1-yl)-4-((5-phenylpyrimidin-2-yl)methyl)piperazine-2,3-dione], the EC50 worked out at 26 nM.

In the case of `O=C1C(=O)N(C2CCC2)CCN1Cc1ncc(-c2ccccc2)cn1` [Example 277, 1-cyclobutyl-4-((5-phenylpyrimidin-2-yl)methyl)piperazine-2,3-dione], the EC50 is 24 nM.

On to `O=C1C(=O)N([C@H]2C[C@H]3C[C@H]3C2)CCN1Cc1ncc(-c2ccccc2)cn1` [Example 278, 1-((cis)-bicyclo[3.1.0]hexan-3-yl)-4-((5-phenylpyrimidin-2-yl)methyl)piperazine-2,3-dione], for which the EC50 stood at 16 nM.

For the compound `O=C1C(=O)N(C2CCOC2)CCN1Cc1ncc(-c2ccccc2)cn1` (centres unmarked) [Example 279, 1-((5-phenylpyrimidin-2-yl)methyl)-4-(tetrahydrofuran-3-yl)piperazine-2,3-dione], the EC50 was 68 nM.

Regarding `O=C1C(=O)N(CC2CC2)CCN1Cc1ncc(-c2ccccc2)cn1` [Example 280, 1-(cyclopropylmethyl)-4-((5-phenylpyrimidin-2-yl)methyl)piperazine-2,3-dione], the EC50 came to 38 nM.

For `O=C1C(=O)N(CC2CCC2)CCN1Cc1ncc(-c2ccccc2)cn1` [Example 281, 1-(cyclobutylmethyl)-4-((5-phenylpyrimidin-2-yl)methyl)piperazine-2,3-dione], the EC50 is 35 nM.

On to `CC1CCC1N1CCN(Cc2ncc(-c3ccccc3)cn2)C(=O)C1=O` (centres unmarked) [Example 282, 1-(2-methylcyclobutyl)-4-((5-phenylpyrimidin-2-yl)methyl)piperazine-2,3-dione], for which the EC50 was determined as 30 nM.

As for `O=C1C(=O)N([C@H]2C[C@H]3C[C@H]3C2)CCN1Cc1nnc(-c2ccccc2)s1` [Example 283, 1-((cis)-bicyclo[3.1.0]hexan-3-yl)-4-((5-phenyl-1,3,4-thiadiazol-2-yl)methyl)piperazine-2,3-dione], the EC50 came out at 7 nM.

Take `O=C1C(=O)N(C2C[C@@H]3C[C@@H]3C2)CCN1Cc1ccc(-c2ccccc2)nn1` (stereo partly drawn) [Example 284, 1-((cis)-bicyclo[3.1.0]hexan-3-yl)-4-((6-phenylpyridazin-3-yl)methyl)piperazine-2,3-dione]: the EC50 is 8 nM.

As for `N#CC1CC(N2CCN(Cc3nnc(-c4ccccc4)s3)C(=O)C2=O)C1` (centres unmarked) [Example 285, 3-(2,3-dioxo-4-((5-phenyl-1,3,4-thiadiazol-2-yl)methyl)piperazin-1-yl)cyclobutane-1-carbonitrile], the EC50 was found to be 28 nM.

As to `CC(C)N1CCN(Cc2ncc(-c3ccccc3)cn2)C(=O)C1=O` [Example 286, 1-isopropyl-4-((5-phenylpyrimidin-2-yl)methyl)piperazine-2,3-dione], the concentration giving a half-maximal response (EC50) stood at 34 nM.

In the case of `CC(C)(C)CN1CCN(Cc2ncc(-c3ccccc3)cn2)C(=O)C1=O` [Example 287, 1-neopentyl-4-((5-phenylpyrimidin-2-yl)methyl)piperazine-2,3-dione], the concentration giving a half-maximal response (EC50) turned out to be 34 nM.

As to `CC(CF)N1CCN(Cc2ncc(-c3ccccc3)cn2)C(=O)C1=O` (centres unmarked) [Example 288, 1-(1-fluoropropan-2-yl)-4-((5-phenylpyrimidin-2-yl)methyl)piperazine-2,3-dione], the EC50 came to 37 nM.

Turning to `O=C1C(=O)N(C2CC(F)C2)CCN1Cc1nnc(-c2ccccc2)s1` (centres unmarked) [Example 290, 1-(3-fluorocyclobutyl)-4-((5-phenyl-1,3,4-thiadiazol-2-yl)methyl)piperazine-2,3-dione], the EC50 was 8 nM.

With `O=C1C(=O)N(C2CC(C3CC3)C2)CCN1Cc1nnc(-c2ccccc2)s1` (centres unmarked) [Example 291, 1-(3-cyclopropylcyclobutyl)-4-((5-phenyl-1,3,4-thiadiazol-2-yl)methyl)piperazine-2,3-dione], the EC50 was determined as 4 nM.

As for `O=C1C(=O)N(c2ccccc2)CCN1Cc1ncc(-c2ccccc2)cn1` [Example 292, 1-phenyl-4-((5-phenylpyrimidin-2-yl)methyl)piperazine-2,3-dione], the EC50 was 64 nM.

For the compound `[2H]C1(n2ccn(Cc3nnc(-c4ccccc4)s3)c(=O)c2=O)CCCC1` [Example 293, 1-(cyclopentyl-1-d)-4-((5-phenyl-1,3,4-thiadiazol-2-yl)methyl)-1,4-dihydropyrazine-2,3-dione], the EC50 stood at 11 nM.

Regarding `O=C1C(=O)N(C23CC(F)(C2)C3)CCN1Cc1nnc(-c2ccccc2)s1` [Example 294, 1-(3-fluorobicyclo[1.1.1]pentan-1-yl)-4-((5-phenyl-1,3,4-thiadiazol-2-yl)methyl)piperazine-2,3-dione], the 50% effective concentration (EC50) stood at 16 nM.

On to `N#CC12CC(N3CCN(Cc4nnc(-c5ccccc5)s4)C(=O)C3=O)(C1)C2` [Example 295, 3-(2,3-dioxo-4-((5-phenyl-1,3,4-thiadiazol-2-yl)methyl)piperazin-1-yl)bicyclo[1.1.1]pentane-1-carbonitrile], for which the EC50 amounted to 53 nM.

With `CC12CC(N3CCN(Cc4nnc(-c5ccccc5)s4)C(=O)C3=O)(CO1)C2` [Example 296, 1-(1-methyl-2-oxabicyclo[2.1.1]hexan-4-yl)-4-((5-phenyl-1,3,4-thiadiazol-2-yl)methyl)piperazine-2,3-dione], the EC50 was found to be 63 nM.

`COc1ccc(C2(N3CCN(Cc4nnc(-c5ccccc5)s4)C(=O)C3=O)CC2)nc1` [Example 297, 1-(1-(5-methoxypyridin-2-yl)cyclopropyl)-4-((5-phenyl-1,3,4-thiadiazol-2-yl)methyl)piperazine-2,3-dione]: the EC50 was determined as 83 nM.

In the case of `O=C1C(=O)N(C2(C(F)(F)F)CCC2)CCN1Cc1nnc(-c2ccccc2)s1` [Example 298, 1-((5-phenyl-1,3,4-thiadiazol-2-yl)methyl)-4-(1-(trifluoromethyl)cyclobutyl)piperazine-2,3-dione], the EC50 came out at 32 nM.

The values are drawn from US20240246937A1 (MERCK SHARP & DOHME LLC, priority 2021, published 2024).
